Source: US20130345306A1, “IDENTIFICATION OF C3 COMPLEMENT MOLECULE AT THE SITE OF INJURY TO BLOOD VESSELS IN THE RETINA OF OXYGEN EXPOSED ANIMALS” (priority 2011, published 2013)
Entries after “also recorded” stand apart in the source; their conditions may differ.

Tests used:
[1] = target: human C3aR (Homo sapiens, UniProt Q16581); details: cited from earlier work
[2] = system: airway neutrophilia; details: in vivo; cited from earlier work
[3] = system: rodent C3aR; details: cited from earlier work
[4] = system: new born mice; assay: Murine OIR trial with progressively increased SB290157 dosage, observation for untoward reactions or side effects; type: in vivo, mouse; details: i.p. DOL 5; dosage increased from 2.5 to 5, 7.5, 10, 15, 25, 50 mgm/kg; 75% O2 DOL 7-12
Method: Standard O2 exposure 75% DOL 7-12; 3) Euthanasia at DOL17, followed by enucleation, removal of the retina and separation from the retina from underlying Pigment Epithelial layer. Flatmount and stain for vessels with IsoLectin was performed by incubating the preparation with goat AB followed by counter-staining with Rhodamine to bring out the presence of active C3a; 4)Microscopy at 2.5× and 40× for: capillary bed anatomy; presence of “ghost vessels” previously described; presence of cellular debris noted previously thought to be pieces of partially destroyed but not digested cell wall; destruction or absence of neurons and glial in the retina surrounding the Optic Nerve Head(from which major blood vessels exit undamaged at least as can be detected by the oxygen exposure); presence or absence of neovascular tufts (a late complication of oxygen damage). An additional trial with Intravitreal Injection will be performed as this paper is prepared.
MATERIALS & METHOD: Litters of black 6 new born mice were divided in half at birth. At DOL seven, one half of the litter were placed in an oxygen chamber maintained at 75%+/−2% oxygen till DOL 12. The oxygen exposed mice were maintained in room air until DOL 17. The control mice were raised in room air until DOL 17 when both halves were euthanized at DOL17. Eyes were enucleated and fixed in 4% paraformaldehyde at 4° C. overnight. […]

[5] = system: murine oxygen-induced retinopathy (OIR); assay: Murine OIR, SB290157 intraperitoneal just prior to 75% oxygen, preservation of capillary bed; type: in vivo, mouse; details: 2-5 mg/kg i.p. just prior to 75% oxygen DOL 7-12; vs sham saline injected oxygen-exposed litter mates
Method: Murine Model of Oxygen-Induced Retinopathy (OIR): In this regard we reported the role of active C3a in the OIR (15). C57BL/6J mice were obtained from Jackson Laboratories. After birth the litter of mice were nursed by their dam in a room air environment from day of life (DOL) 0 to DOL 6. On DOL 7 the litter were separated in half. One half were placed with their nursing dam in a custom made incubator from DOL 7 through DOL 12 ([…]) with the oxygen concentration maintained at 75% measured twice daily. The other half of the litter were raised in room air as controls. Dams were replaced every 24 hours in the incubator. […]
After a rinse, the retinas were permeabilized with 0.1% Triton X100 and stained with Alexa Fluor 488-conjugated isolectin GS-IB4, followed by blocking with 5% donkey serum. […] Images were obtained digitally with a fluorescence microscope and a digital camera. […]
For a given control half litter the areal extent of total destruction can be estimated, in a non-limiting example from the area extending from optic nerve to mid periphery of the retina. For the SB290157 treated animals the measured area of destruction can be estimated, in a non-limiting example from the area extending from optic nerve to mid periphery of the retina. […] The results of this experiment are measured in prevention of capillary loss. […]

[6] = system: murine oxygen-induced retinopathy (OIR); assay: Murine oxygen-induced retinopathy (OIR), SB290157 injected intraperitoneally on DOL 5, retinal vasculature pattern on DOL 17; type: in vivo; details: 1 mg/kg i.p. DOL 5
Method: litters of new born mice were divided into 4 groups. On Day of Life (DOL) 5, SB290157 1 mg per kilogram body weight is injected intraperitoneally into mice in Group 1 and Group 3; same volume solvent without SB290157 is injected intraperitoneally into mice in Group 2 and Group 4. Mice from group 1 and 2 are raised in room air all the time, but mice from group 3 and 4 are raised in room air till DOL 7 when they are transfer into 75% oxygen chamber and on DOL 12 they are returned into room air. On DOL 17, eyes are enucleated and retinas dissected after euthanasia. Retinas are then stained with Alexa Fluor 488 conjugated isolectin GS-IB4 and mounted on slide for vasculature pattern study.

[7] = 75% oxygen DOL 7-12, DOL 17, vs solvent-injected oxygen-exposed group 4

Sequence of human C3aR (Q16581 whole entry): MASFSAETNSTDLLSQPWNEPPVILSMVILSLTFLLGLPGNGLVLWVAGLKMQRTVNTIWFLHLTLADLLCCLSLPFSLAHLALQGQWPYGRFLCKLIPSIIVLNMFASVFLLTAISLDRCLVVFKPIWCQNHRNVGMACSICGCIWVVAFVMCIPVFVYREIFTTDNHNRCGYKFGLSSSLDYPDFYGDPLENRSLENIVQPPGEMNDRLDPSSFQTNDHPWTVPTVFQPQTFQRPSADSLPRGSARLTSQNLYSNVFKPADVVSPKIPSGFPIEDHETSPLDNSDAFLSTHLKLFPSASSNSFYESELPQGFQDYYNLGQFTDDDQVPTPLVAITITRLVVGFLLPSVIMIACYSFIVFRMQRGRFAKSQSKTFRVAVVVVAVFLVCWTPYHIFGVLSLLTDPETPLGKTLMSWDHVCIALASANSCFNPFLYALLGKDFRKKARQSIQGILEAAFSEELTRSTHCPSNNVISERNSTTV

In the case of `NC(N)=NCCC[C@H](NC(=O)COCC(c1ccccc1)c1ccccc1)C(=O)O` [SB290157], the C3a receptor blockade [1] is listed as “blocking”, the “effect in airway neutrophilia” value [2] is listed as “beneficial effects” and the C3a receptor blockade [3] is listed as “blocking”. For the same molecule, the “untoward reactions or side effects” value [4] was “None were observed”, the “preservation of capillary bed” value [5] was “prevents the destruction of capillary bed; also recorded: preservation of capillary bed” and the “effect on murine OIR (conclusion)” value ([6]; 75% oxygen DOL 7-12) was “can attenuate murine OIR”. For the same molecule, the “capillary damage in retinal whole mounts” value [6, 7] was “attenuated the damage to the capillary bed; also recorded: significantly less capillary damage”, the neovascularization tufts [6, 7] was “few to no vascular tufts; also recorded: less neovascularization tufts” and the “retinal vasculature / toxicity to forming vascular tissue in room air raised mice” value ([6]; room air, DOL 17, vs solvent group 2) was “No evidence of toxicity to forming vascular tissue; also recorded: normal developing vasculature patterns without significant difference”.
